Experiment: mn = molality of the nth substance listed, in mol/kg
Conditions: 100 kPa, Liquid; for viscosity: Capillary tube (Ostwald / Ubbelohde) method; for mass density: Vibrating tube method

O=C1O[C@H]([C@@H](O)CO)C(O)=C1O [L-ascorbic acid] + O
Conditions	mass density, 293.15 K [kg/m3]	mass density, 303.15 K [kg/m3]	mass density, 313.15 K [kg/m3]	mass density, 323.15 K [kg/m3]	viscosity, 293.15 K [mPa·s]	viscosity, 303.15 K [mPa·s]	viscosity, 313.15 K [mPa·s]	viscosity, 323.15 K [mPa·s]
m1 = 0.1	1005.25	1002.56	999.06	994.78	1.042	0.828	0.677	0.565
m1 = 0.2	1012.12	1009.33	1005.69	1001.31	1.09	0.858	0.699	0.584
m1 = 0.2002	1012.12	1009.33	1005.69	1001.31	1.09	0.858	0.699	0.584
m1 = 0.3	1018.82	1015.91	1012.2	1007.78	1.128	0.894	0.724	0.603
m1 = 0.3141	1018.82	1015.91	1012.2	1007.78	1.128	0.894	0.724	0.603
m1 = 0.4	1025.4	1022.39	1018.62	1014.08	1.167	0.922	0.751	0.623

OC[C@@H](O)[C@@H](O)[C@H](O)[C@H](O)CO [mannitol] + O
Conditions	mass density, m1 = 0.2003 [kg/m3]	mass density, m1 = 0.4001 [kg/m3]	mass density, m1 = 0.5999 [kg/m3]	mass density, m1 = 0.7997 [kg/m3]	mass density, m1 = 1 [kg/m3]	viscosity, m1 = 0.2003 [mPa·s]	viscosity, m1 = 0.4001 [mPa·s]	viscosity, m1 = 0.5999 [mPa·s]	viscosity, m1 = 0.7997 [mPa·s]	viscosity, m1 = 1 [mPa·s]
293.15 K	1010.6	1022.32	1033.48	1044.08	1054.22	1.106	1.219	1.345	1.486	1.634
303.15 K	1007.89	1019.47	1030.47	1040.9	1050.86	0.875	0.957	1.048	1.151	1.256
313.15 K	1004.33	1015.78	1026.64	1036.96	1046.81	0.713	0.774	0.842	0.918	0.996
323.15 K	1000.02	1011.34	1022.08	1032.29	1042.03	0.592	0.64	0.693	0.751	0.811

OC[C@@H](O)[C@@H](O)CO [meso-1,2,3,4-butanetetrol] + O
Conditions	mass density, m1 = 0.2002 [kg/m3]	mass density, m1 = 0.4001 [kg/m3]	mass density, m1 = 0.6001 [kg/m3]	mass density, m1 = 0.7984 [kg/m3]	mass density, m1 = 0.9998 [kg/m3]	viscosity, m1 = 0.2002 [mPa·s]	viscosity, m1 = 0.4001 [mPa·s]	viscosity, m1 = 0.6001 [mPa·s]	viscosity, m1 = 0.7984 [mPa·s]	viscosity, m1 = 0.9998 [mPa·s]
293.15 K	1005.26	1012.03	1018.54	1024.74	1030.79	1.069	1.134	1.204	1.278	1.358
303.15 K	1002.58	1009.24	1015.65	1021.76	1027.73	0.849	0.895	0.947	1.001	1.058
313.15 K	999.05	1005.61	1011.9	1017.92	1023.81	0.69	0.727	0.766	0.806	0.849
323.15 K	994.8	1001.29	1007.55	1013.53	1019.39	0.576	0.604	0.634	0.665	0.698

OC[C@@H](O)[C@H](O)[C@@H](O)CO [xylitol] + O
Conditions	mass density, m1 = 0.2002 [kg/m3]	mass density, m1 = 0.4 [kg/m3]	mass density, m1 = 0.5996 [kg/m3]	mass density, m1 = 0.7997 [kg/m3]	mass density, m1 = 1 [kg/m3]	viscosity, m1 = 0.2002 [mPa·s]	viscosity, m1 = 0.4 [mPa·s]	viscosity, m1 = 0.5996 [mPa·s]	viscosity, m1 = 0.7997 [mPa·s]	viscosity, m1 = 1 [mPa·s]
293.15 K	1008.14	1017.61	1026.67	1035.36	1043.71	1.081	1.168	1.249	1.343	1.449
303.15 K	1005.4	1014.72	1023.62	1032.15	1040.36	0.858	0.917	0.981	1.056	1.125
313.15 K	1001.83	1010.99	1019.76	1028.15	1036.24	0.699	0.743	0.792	0.845	0.901
323.15 K	997.51	1006.53	1015.16	1023.43	1031.37	0.582	0.617	0.655	0.695	0.739
